From patent US7259154B2, “Pyrrolopyrimidines” (Aventis Pharmaceuticals Inc., priority 2001, dated 2007)

melting point	Structure (SMILES)
> 260 °C	COc1ccc2[nH]cc(-c3cc4c(OC)ncnc4[nH]3)c2c1 [Example 11, 4-Methoxy-6-(5-methoxy-1H-indol-3-yl)-7H-pyrrolo[2,3-d]pyrimidine]
184 °C	COc1ccc2c(c1)c(-c1cc3c(OC)ncnc3[nH]1)cn2C [Example 10, 4-Methoxy-6-(5-methoxy-1-methyl-1H-indol-3-yl)-7H-pyrrolo[2,3-d]pyrimidine]
